The subject of data set [1] is Oryctolagus sp. The note with it: acute, dermal.
For data set [2], the system named is Rattus norvegicus. The note with it: for LC50 / LD50: acute; for LD50 / NOAEL / LOAEL: oral.
The subject of data set [3] is Mus musculus.
[4] abbreviates: reproduction developmental, gavage, F, Sprague-Dawley.
The mark [5] stands for this setting: short-term, duration: 27 days, gavage, Sprague-Dawley.
[6] abbreviates: subchronic, duration: 13 weeks, oral, gavage, F, B6C3F1.
Setting [7] is: subchronic, duration: 13 weeks, oral, gavage, M, B6C3F1.
Where [8] appears, read: developmental, duration: 10 days, Wistar.
[9] abbreviates: developmental, duration: 128 days, gavage, Wistar.
[10] abbreviates: reproduction developmental, duration: 10 days, F, Wistar.
Setting [11] is: reproduction developmental, duration: 27 days, gavage, F, Wistar.
Where [12] appears, read: reproduction developmental, duration: 27 days, gavage, Wistar, generation: F1.
Where [13] appears, read: reproduction developmental, duration: 86 days, gavage, Wistar.
Setting [14] is: reproduction developmental, duration: 128 days, gavage, F, Wistar.
[15] abbreviates: reproduction developmental, duration: 128 days, gavage, Wistar.
Setting [16] is: short-term, duration: 28 days, diet, Sprague-Dawley.

A word on the NOAEL: it is the highest dose or exposure tested at which no adverse effect was seen. As usually defined, the LOAEL is the lowest tested level that showed an adverse finding.

≈ marks a conversion by molar mass, not a printed value. Where “and” joins values, the source holds several entries; their conditions need not be identical. Equal entries are not always repeated.

Regarding `CCCCCCCCCc1cc2ccccc2c(S(=O)(=O)[O-])c1CCCCCCCCC.CCCCCCCCCc1cc2ccccc2c(S(=O)(=O)[O-])c1CCCCCCCCC.[Ca+2]` [Calcium bis(dinonylnaphthalenesulphonate)], the LD50 is above 20000 mg/kg in data set [1] (New Zealand) and above 5000 mg/kg in data set [2] (gavage, Sprague-Dawley). This compound also gave an LC50 in data set [2] (Inhalation, Wistar) above 18 µg/mL.
`CCOP(=S)(S)OCC` [Diethyl dithiophosphoric acid]: the LD50 in data set [1] (New Zealand) is above 2000 mg/kg; in data set [2], 4510 mg/kg. The compound further yielded an LC50 in data set [2] (inhalation) of 1640 mg/m3.
For `C=CC(C)CCC=C(C)C` (stereo unspecified) [Dihydromyrcene], the LD50 in data set [1] (New Zealand) is above 5000 mg/kg; in data set [2] (Wistar), above 5000 mg/kg; in data set [2] (gavage, Wistar), above 5000 mg/kg.
On to `O=C(O)CCCCCCCCCCC(=O)O` [Dodecanedioic acid], for which the LD50 in data set [1] (occlusive) is above 6000 mg/kg; in data set [2], above 3000 mg/kg; in data set [2] (gavage) it was above 17000 mg/kg. For the same compound, the LC50 in data set [2] (Inhalation) was above 4.3 µg/mL. The NOAEL in data set [2] (reproduction developmental, duration: 50 days, gavage, CRL:CD BR) amounted to 1000 mg/kg-day.
As to `CCCCCCC(=O)O` [Heptanoic acid], the NOAEL in data set [3] (chronic, duration: 80 weeks, dermal, C3H/HeCr) is 50 mg; in data set [2] (developmental, duration: 9 days, gavage, Sprague-Dawley), 1000 mg/kg-day; in data set [2] (reproduction developmental, duration: 9 days, gavage, F, Sprague-Dawley), 1000 mg/kg-day; in data set [2] (setting [4]), below 200 mg/kg-day; in data set [2] (reproduction developmental, gavage, Sprague-Dawley, generation: F1), ≥ 1000 mg/kg-day and ≤ 2000 mg/kg-day; in data set [2] (setting [5]), 1750 mg/kg-day. Moreover, the LD50 in data set [1] (albino) is at least 2000 mg/kg; in data set [2], 8370 mg/kg. The compound also returned an LC50 in data set [2] (Inhalation, Sprague-Dawley) above 4.6 µg/mL. The LOAEL was above 1000 mg/kg-day in data set [2] (setting [4]) and 3500 mg/kg-day in data set [2] (setting [5]).
Take `O=C1OC(=O)C2CCCCC12` (stereo unspecified) [Hexahydrophthalic anhydride]: the LD50 in data set [1] (New Zealand) was above 2000 mg/kg; in data set [2], 3310 mg/kg; in data set [2] (Sprague-Dawley), ≥ 2700 mg/kg and ≤ 2800 mg/kg. The LC50 in data set [2] (Inhalation, Sprague-Dawley) was above 1100 mg/m3.
Consider `C=CC(=C)CCC=C(C)C` [Myrcene], for which the LD50 in data set [3] (acute, oral, gavage, Swiss) was 5060 mg/kg; in data set [1] (New Zealand) it was above 5000 mg/kg; in data set [2] (Wistar) it was above 5000 mg/kg; in data set [2] (gavage, Wistar) it was above 11400 mg/kg. Besides, the lowest-observed-adverse-effect level (LOAEL) amounted to 500 mg/kg-day in data set [3] (setting [6]); 1000 mg/kg-day in data set [3] (setting [7]); 1200 mg/kg-day in data set [2] (setting [8]); 500 mg/kg-day in data set [2] (setting [9]); 1200 mg/kg-day in data set [2] (setting [10]); 1000 mg/kg-day in data set [2] (setting [11]). Moreover, the LOAEL came to 500 mg/kg-day in data set [2] (setting [12]); 500 mg/kg-day in data set [2] (setting [13]); 1000 mg/kg-day in data set [2] (setting [14]); 500 mg/kg-day in data set [2] (setting [15]); 250 mg/kg-day in data set [2] (subchronic, duration: 13 weeks, gavage, Fischer 344). The NOAEL stood at 250 mg/kg-day in data set [3] (setting [6]); 500 mg/kg-day in data set [3] (setting [7]); 500 mg/kg-day in data set [2] (setting [8]); 250 mg/kg-day in data set [2] (developmental, duration: 27 days, gavage, Wistar); 250 mg/kg-day in data set [2] (setting [9]); 500 mg/kg-day in data set [2] (setting [10]). Further, the no observed adverse effect level (NOAEL) in data set [2] (setting [11]) came out at 500 mg/kg-day; in data set [2] (setting [12]) it was 250 mg/kg-day; in data set [2] (setting [13]), 300 mg/kg-day; in data set [2] (setting [14]), 500 mg/kg-day; in data set [2] (setting [15]), 250 mg/kg-day; in data set [2] (reproduction developmental, gavage, Wistar) it was 300 mg/kg-day.
As for `Cc1ccc(N(C)C)cc1` [N,N,4-Trimethylaniline], the LD50 was above 2000 mg/kg in data set [1] (New Zealand) and 1650 mg/kg in data set [2] (Sprague-Dawley). The LC50 in data set [2] (inhalation, Sprague-Dawley) came out at 1.4 µg/mL (≈ 10.4 µM).
Regarding `CC(C)CCC(C)Nc1ccc(Nc2ccccc2)cc1` (stereo unspecified) [N-(5-Methyl-2-hexyl)-N'-phenyl-p-phenylenediamine], the LD50 in data set [1] (occlusive, New Zealand) was above 5010 mg/kg. For the same compound, in data set [2] (setting [16]), the lowest observed adverse effect level (LOAEL) was found to be 750 ppm and the no observed adverse effect level (NOAEL) was 500 ppm.
Turning to `CCCCCCCCCc1cc2ccccc2c(S(=O)(=O)[O-])c1CCCCCCCCC.CCCCCCCCCc1cc2ccccc2c(S(=O)(=O)[O-])c1CCCCCCCCC.[Ba+2]` [Naphthalenesulfonic acid, dinonyl-, barium salt], the LD50 was below 20000 mg/kg in data set [1] (New Zealand); above 5000 mg/kg in data set [2] (diet, Sprague-Dawley); above 5000 mg/kg in data set [2] (gavage, Wistar). In addition, the LC50 in data set [2] (Inhalation, Wistar) was above 21 µg/mL.

Values taken from EPA's ToxValDB 9.5.
